Source: patent US11266655B2, “Methods and compositions for treating urea cycle disorders” (Camp4 Therapeutics Corporation, priority 2019, dated 2022)

Key:
OTC [1] = experiment: OTC expression modulated by compounds, OTC/GeoMean of housekeeping genes, DMSO = 1 (Table 3A); format: cell-based, human; details: 10 uM final concentration
OTC [2] = experiment: RNA-seq of compound-treated primary human hepatocytes, OTC expression; format: cell-based; details: for Relative OTC level vs Untreated (±Standard Deviation): primary human hepatocytes, triplicate (Table 14); for increase in OTC gene expression (Table 14, FIG. 6): Example 11, relative mRNA vs DMSO
ASL = experiment: RNA-seq of compound-treated primary human hepatocytes, ASL expression; format: cell-based; details: for Relative ASL level vs Untreated (±Standard Deviation): triplicate (Table 25, FIG. 17); for increase in ASL gene expression (Table 25, FIG. 17): Example 11, relative mRNA vs DMSO
CPS1 = experiment: RNA-seq of compound-treated primary human hepatocytes, CPS1 expression; format: cell-based; details: for increase in CPS1 gene expression (Tables 19, 20, FIG. 11, 12): Example 11, relative mRNA vs DMSO
ASS1 = experiment: RNA-seq of compound-treated primary human hepatocytes, ASS1 expression; format: cell-based; details: for Relative ASS1 level vs Untreated (±Standard Deviation): primary human hepatocytes
ARG1 = experiment: RNA-seq of compound-treated primary human hepatocytes, ARG1 expression; format: cell-based; details: for increase in ARG1 gene expression (Tables 17, 18, FIG. 9, 10): Example 11, relative mRNA vs DMSO
OTC [3] = experiment: siRNA SMARTpool transfection of primary human hepatocytes, OTC qPCR (Table 3B); format: cell-based; details: siRNA 10 nM, 48 hrs, vs non-targeting siRNA
Method: Primary human hepatocytes were reversed transfected with 6 pmol siRNA using RNAiMAX Reagent (ThermoFisher Cat No13778030) in 24 well format, 1 ul per well (for a final cone of 10 nM). The following morning, the medium was removed and replaced with Modified Maintenance Medium (see above) for an additional 24 hrs. The entire treatment lasted 48 hrs, at which point the medium was removed and replaced with RLT Buffer for RNA extraction (Qiagen RNeasy 96 QIAcube HT Kit Cat #74171). siRNAs were obtained from Dharmacon and are a pool of four siRNA duplex all designed to target distinct sites within the specific gene of interest (known as “SMARTpool”). They were tested against the control non-targeting siRNA D-001206-13-05.
Isolated RNA was processed for cDNA synthesis and qPCR as described above. Taqman assay used for OTC measurement: Hs00166892_ml

SLC25A15 = experiment: RNA-seq of compound-treated primary human hepatocytes, SLC25A15 expression; format: cell-based; details: for Relative SLC25A15 level vs Untreated (±Standard Deviation): primary human hepatocytes, triplicate (Table 24, FIG. 16A-B)
urea cycle genes = experiment: RNA-seq of primary human hepatocytes, compounds that modulate multiple urea cycle-related genes; format: cell-based; details: primary human hepatocytes, RNA-seq
OTC [4] = experiment: siRNA knockdown of JAK/STAT/IRF genes in hepatocytes, OTC mRNA; format: cell-based, human; details: 10 nM siRNA plus 0.03 nM JAK1 siRNA, FIG. 27C
Text: To confirm that JAK1 inhibition is necessary for OTC and CPS1 gene expression increase, JAK1, JAK2, and JAK3 expression was knocked down using the siRNA methods previously described in Example 1 (JAK1 siRNA Dharmacon #M-003145-02-0005; JAK2 siRNA Dharmacon #M-003146-02-0005; JAK3 siRNA Dharmacon #M-003147-01-0005). The cells were harvest for mRNA collection and quantification as previously described.
In addition, STAT5B is a JAK1 signal transducer and transcription factor activated by JAK1. STAT5B was knocked down in hepatocytes using siRNA (Dharmacon cat #M-010539-02-0005) as previously described in Example 1. The cells were harvest for mRNA collection and quantification as previously described.
To confirm the role of JAK1 and investigate the role of other signaling proteins and transcription factors in OTC and CPS1 expression, a panel of additional genes were knocked down with siRNA alone or in combination with JAK1. In particular, JAK2 was knockdown alone or in combination with JAK1. The combinations are shown in FIG. 26A and FIG. 26B. siRNA used to knock down JAK1 and JAK2 were: JAK1 siRNA Dharmacon #M-003145-02-0005; JAK2 siRNA Dharmacon #M-003146-02-0005. OTC and CPS1 mRNA expression was normalized to B2M. The assay was performed in triplicate in three donor hepatocyte cell lines: 371, 171, and 511A.
Cells were harvested after siRNA treatment for mRNA quantification. JAK1, OTC, and CPS1 mRNA levels were normalized to GUSB.

[5] = 3 uM, primary human hepatocytes
[6] = 10 uM, primary human hepatocytes
[7] = 3 uM, primary human hepatocytes, triplicate (Table 20, FIG. 12)
[8] = 10 uM, primary human hepatocytes, triplicate (Table 20, FIG. 12)
[9] = 10 uM, triplicate (Table 15, FIG. 8)
[10] = 10 μM, primary human hepatocytes, triplicate (Table 17, FIG. 9)
[11] = 10 uM, primary human hepatocytes, triplicate (Table 18, FIG. 10)
[12] = Example 11, relative mRNA vs DMSO
[13] = primary human hepatocytes, RNA-seq

## CN(c1ncccc1CNc1nc(Nc2ccc3c(c2)CC(=O)N3)ncc1C(F)(F)F)S(C)(=O)=O [PF-00562271]
OTC [1]
  Max Value (OTC/GeoMean of HKs; DMSO = 1): 3.3
OTC [2]; 3 uM
  Relative OTC level vs Untreated (±Standard Deviation): 3.27 ± 0.59
OTC [2]; 10 uM
  Relative OTC level vs Untreated (±Standard Deviation): 7.05 ± 1.14
OTC [2]
  increase in OTC gene expression (Table 14, FIG. 6): greatest increase
ASL; [5]
  Relative ASL level vs Untreated (±Standard Deviation): 2.09 ± 0.67
ASL; [6]
  Relative ASL level vs Untreated (±Standard Deviation): 4.92 ± 1.05
ASL
  increase in ASL gene expression (Table 25, FIG. 17): greatest increase
CPS1; [7]
  Relative CPS1 level vs Untreated (±Standard Deviation): 2.33 ± 0.58
CPS1; [8]
  Relative CPS1 level vs Untreated (±Standard Deviation): 4.70 ± 0.49
CPS1
  increase in CPS1 gene expression (Tables 19, 20, FIG. 11, 12): greatest increase
ASS1; [9]
  Relative ASS1 level vs Untreated (±Standard Deviation): 2.30 ± 0.41
ARG1; [10]
  Relative ARGI level vs Untreated (±Standard Deviation): 1.32 ± 0.33
ARG1; [11]
  Relative ARGI level vs Untreated (±Standard Deviation): 2.53 ± 0.36
ARG1
  increase in ARG1 gene expression (Tables 17, 18, FIG. 9, 10): greatest increase

## IRF1 (DNA GAAAGTGAAAGT; siRNA; chemistry not given here; the letters are possibly those of the target site)
OTC [3]
  Max fold change in OTC: 1.70 fold

## Cc1cc(-c2nc(-c3ccc(OC(F)(F)F)cc3)no2)nn1Cc1ccnc(N2CCN(C3CC3)CC2)c1 [BAY 87-2243]
SLC25A15; 0.3 μM
  Relative SLC25A15 level vs Untreated (±Standard Deviation): 2.85 ± 0.23
SLC25A15; 1 μM
  Relative SLC25A15 level vs Untreated (±Standard Deviation): 2.40 ± 0.22
SLC25A15; 3 μM
  Relative SLC25A15 level vs Untreated (±Standard Deviation): 2.89 ± 0.37
SLC25A15; 10 μM
  Relative SLC25A15 level vs Untreated (±Standard Deviation): 2.70 ± 0.19
SLC25A15; [12]
  Increase in SLC25A15 gene expression (qualitative): greatest increase
OTC [2]; 0.3 uM
  Relative OTC level vs Untreated (±Standard Deviation): 3.33 ± 0.60
OTC [2]; 1 uM
  Relative OTC level vs Untreated (±Standard Deviation): 5.61 ± 3.28
OTC [2]; 3 uM
  Relative OTC level vs Untreated (±Standard Deviation): 7.03 ± 3.84
OTC [2]; 10 uM
  Relative OTC level vs Untreated (±Standard Deviation): 6.18 ± 1.58
OTC [2]
  increase in OTC gene expression (Table 14, FIG. 6): greatest increase
ASL; 0.3 uM, primary human hepatocytes
  Relative ASL level vs Untreated (±Standard Deviation): 3.02 ± 0.25
ASL; 1 uM, primary human hepatocytes
  Relative ASL level vs Untreated (±Standard Deviation): 7.50 ± 1.10
ASL; [5]
  Relative ASL level vs Untreated (±Standard Deviation): 11.42 ± 6.31
ASL; [6]
  Relative ASL level vs Untreated (±Standard Deviation): 12.28 ± 4.98
ASL
  increase in ASL gene expression (Table 25, FIG. 17): greatest increase
ASL; [13]
  ASL expression, Fold change (Log 2) vs untreated: 0.58 Log 2
CPS1; 0.3 uM, primary human hepatocytes, triplicate (Table 20, FIG. 12)
  Relative CPS1 level vs Untreated (±Standard Deviation): 3.32 ± 0.53
CPS1; 1 uM, primary human hepatocytes, triplicate (Table 20, FIG. 12)
  Relative CPS1 level vs Untreated (±Standard Deviation): 5.11 ± 1.08
CPS1; 3 μM, primary human hepatocytes, triplicate (Table 19, FIG. 11)
  Relative CPS1 level vs Untreated (±Standard Deviation): 1.41 ± 0.06
CPS1; [7]
  Relative CPS1 level vs Untreated (±Standard Deviation): 5.48 ± 3.12
CPS1; [8]
  Relative CPS1 level vs Untreated (±Standard Deviation): 5.69 ± 2.90
CPS1
  increase in CPS1 gene expression (Tables 19, 20, FIG. 11, 12): greatest increase
CPS1; [13]
  CPS1 expression, Fold change (Log 2) vs untreated: 1.81 Log 2
Urea cycle genes
  number of urea cycle genes whose expression was significantly up-regulated: three
Urea cycle genes; urea cycle-related genes significantly increased (Table 10)
  Up-regulated Genes: CPS1, ASL, ARG1
ASS1; 0.3 μM, triplicate (Table 15, FIG. 7)
  Relative ASS1 level vs Untreated (±Standard Deviation): 2.79 ± 0.22
ASS1; 0.3 uM, triplicate (Table 15, FIG. 8)
  Relative ASS1 level vs Untreated (±Standard Deviation): 2.11 ± 0.33
ASS1; 1 μM, triplicate (Table 15, FIG. 7)
  Relative ASS1 level vs Untreated (±Standard Deviation): 3.10 ± 0.47
ASS1; 01 uM, triplicate (Table 15, FIG. 8)
  Relative ASS1 level vs Untreated (±Standard Deviation): 2.61 ± 0.57
ASS1; 3 μM, triplicate (Table 15, FIG. 7)
  Relative ASS1 level vs Untreated (±Standard Deviation): 2.38 ± 0.01
ASS1; 03 uM, triplicate (Table 15, FIG. 8)
  Relative ASS1 level vs Untreated (±Standard Deviation): 2.87 ± 1.80
ASS1; 10 μM, triplicate (Table 15, FIG. 7)
  Relative ASS1 level vs Untreated (±Standard Deviation): 2.99 ± 0.36
ASS1; [9]
  Relative ASS1 level vs Untreated (±Standard Deviation): 2.86 ± 1.48
ASS1; [12]
  increase in ASS1 gene expression (Tables 15, 16, FIG. 7, 8): greatest increase
ARG1; 0.3 μM, primary human hepatocytes, triplicate (Table 17, FIG. 9)
  Relative ARGI level vs Untreated (±Standard Deviation): 1.36 ± 0.43
ARG1; 1 μM, primary human hepatocytes, triplicate (Table 17, FIG. 9)
  Relative ARGI level vs Untreated (±Standard Deviation): 1.98 ± 0.29
ARG1; 3 μM, primary human hepatocytes, triplicate (Table 17, FIG. 9)
  Relative ARGI level vs Untreated (±Standard Deviation): 2.06 ± 0.19
ARG1; [10]
  Relative ARGI level vs Untreated (±Standard Deviation): 2.03 ± 0.28
ARG1; [11]
  Relative ARGI level vs Untreated (±Standard Deviation): 5.64 ± 3.44
ARG1
  increase in ARG1 gene expression (Tables 17, 18, FIG. 9, 10): greatest increase
ARG1; primary human hepatocytes, RNA-seq (Table 7)
  Fold change (Log 2) vs untreated, ARG1 expression: 1.09 Log 2

## STAT1 (DNA NATTTCCNGGAAAT; target site or template, no part of the molecule; chemistry not given here)
OTC [4]
  OTC expression after knockdown in combination with JAK1: increased
